The subject of the test is Phakopsora pachyrhizi. As to the kind of experiment: Protective control of soy bean rust on soy beans (Phakpa P1), green house. In kind it is in vivo, Phakopsora pachyrhizi on soy bean seedlings. The following applies: 300 ppm active substance, sprayed 1 day before inoculation, assessed after fourteen days; untreated plants 90% infected. The protocol:
The spray solutions were prepared in several steps:
The stock solution were prepared: a mixture of acetone and/or dimethylsulfoxide and the wetting agent/emulsifier Wettol, which is based on ethoxylated alkylphenoles, in a relation (volume) solvent-emulsifier of 99 to 1 was added to 25 mg of the compound to give a total of 5 ml. Water was then added to total volume of 100 ml. This stock solution was diluted with the described solvent-emulsifier-water mixture to the given concentration. 1. Protective control of soy bean rust on soy beans caused by Phakopsora pachyrhizi (Phakpa P1)
Leaves of pot-grown soy bean seedlings were sprayed to run-off with an aqueous suspension, containing the concentration of active ingredient or their mixture as described below. The plants were allowed to air-dry. The trial plants were cultivated for 1 day in a greenhouse chamber at 23-27° C. and a relative humidity between 60 and 80%.Then the plants were inoculated with spores of Phakopsora pachyrhizi. To ensure the success the artificial inoculation, the plants were transferred to a humid chamber with a relative humidity of about 95% and 20 to 24 C for 24 h. The trial plants were cultivated for fourteen days in a greenhouse chamber at 23-27° C. and a relative humidity between 60 and 80%. The extent of fungal attack on the leaves was visually assessed as % diseased leaf area.

For `CC(O)(Cn1cncn1)c1ccc(Oc2ccc(Cl)cc2Cl)cc1Cl` (stereo not shown) [I-1, 2-[2-chloro-4-(2,4-dichlorophenoxy)phenyl]-1-(1,2,4-triazol-1-yl)propan-2-ol], the “infection (extent of fungal attack, % diseased leaf area)” value is listed as 10%.
